Experimental data published in patent US9856279B2 (AGIOS PHARMACEUTICALS, INC, priority 2011, dated 2018).

Columns and labels:
HT1080 cells = assay: Cellular assay for IDH1m inhibitors: inhibition of 2-HG production (LC-MS, 48 hours) in HT1080 cells; assay type: cell-based; details: Homo sapiens, HT-1080; inhibition of 2-HG production, HT1080 cells; read-out: HT1080 IC50
Procedure: Cells (e.g., HT1080 or U87MG) and are grown in T125 flasks in DMEM containing 10% FBS, 1× penicillin/streptomycin and 500 ug/mL G418. They are harvested by trypsin and seeded into 96 well white bottom plates at a density of 5000 cell/well in 100 ul/well in DMEM with 10% FBS. No cells are plates in columns 1 and 12. Cells are incubated overnight at 37° C. in 5% CO2. The next day compounds are made up at 2× concentration and 100 ul are added to each cell well. The final concentration of DMSO is 0.2% and the DMSO control wells are plated in row G. The plates are then placed in the incubator for 48 hours. At 48 hours, 100 μl of media is removed from each well and analyzed by LC-MS for 2-HG concentrations. The cell plate is placed back in the incubator for another 24 hours. At 72 hours post compound addition, 10 mL/plate of Promega Cell Titer Glo reagent is thawed and mixed. The cell plate is removed from the incubator and allowed to equilibrate to room temperature. Then 100 ul of reagent is added to each well of media. The cell plate is then placed on an orbital shaker for 10 minutes and then allowed to sit at room temperature for 20 minutes. The plate is then read for luminescence with an integration time of 500 ms.
The IC50 for inhibition of 2-HG production (concentration of test compound to reduce 2HG production by 50% compared to control) in these two cell lines for various compounds of formula I is set forth in Table 4 above.

IDH1 R132H = IDH1 R132H (Homo sapiens, UniProt O75874, R132H); assay: Assay for IDH1 R132H inhibitors (NADPH/aKG, resazurin detection); assay type: biochemical; details: enzyme assay of Example 12; read-out: IDH1R132H IC50
Outline: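 Read-out is resorufin fluorescence (Ex544/Em590) 5 min after adding a 30 μM resazurin detection mix. Before that, mutant enzyme (0.2 μg/ml in its mix) ran 50 min at room temperature with compound, 8 uM NADPH and 2 mM aKG (mix levels) in Tris pH 7.5 with NaCl, MgCl2, BSA.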

Chain of IDH1 R132H (O75874 whole entry R132H): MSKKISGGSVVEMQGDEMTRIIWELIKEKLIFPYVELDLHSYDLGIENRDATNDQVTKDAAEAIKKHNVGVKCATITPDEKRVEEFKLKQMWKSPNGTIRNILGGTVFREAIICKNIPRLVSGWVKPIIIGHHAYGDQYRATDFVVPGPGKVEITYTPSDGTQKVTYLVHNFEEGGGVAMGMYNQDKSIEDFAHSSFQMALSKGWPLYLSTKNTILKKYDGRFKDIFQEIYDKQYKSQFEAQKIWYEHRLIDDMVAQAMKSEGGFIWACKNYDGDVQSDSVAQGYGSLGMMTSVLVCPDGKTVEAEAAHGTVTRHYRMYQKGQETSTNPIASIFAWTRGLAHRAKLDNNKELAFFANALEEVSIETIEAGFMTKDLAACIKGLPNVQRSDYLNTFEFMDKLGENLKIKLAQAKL

SMILES	IC50 (HT1080 cells) [µM]	IC50 (IDH1 R132H) [µM]
C=Cc1cc(-c2cc(C#N)c(N3CCN(C(=O)CCO)[C@H](C4CC4)C3)nc2C2CC2)c2cccnc2n1 [Compound 655, (R)-6-cyclopropyl-2-(3-cyclopropyl-4-(3-hydroxypropanoyl)piperazin-1-yl)-5-(2-vinyl-1,8-naphthyridin-4-yl)nicotinonitrile]	< 0.5	< 0.5
C=CC(=O)N(c1cc(C#N)c(N2CCN(C(=O)CCOC)[C@H](C)C2)nc1C1CC1)c1ccnc2ccccc12 [Compound 712, (R)—N-(5-cyano-2-cyclopropyl-6-(4-(3-methoxypropanoyl)-3-methylpiperazin-1-yl)pyridin-3-yl)-N-(quinolin-4-yl)acryl amide]	1 to 10	< 0.5
C=Cc1cc(-c2cc(C#N)c(N3CCN(C(=O)CCO)[C@H](C4CC4)C3)nc2C2CC2)c2ccccc2n1 [Compound 571, (R)-6-cyclopropyl-2-(3-cyclopropyl-4-(3-hydroxypropanoyl)piperazin-1-yl)-5-(2-vinylquinolin-4-yl)nicotinonitrile]	< 0.5	< 0.5
COCCC(=O)N1CCN(c2nc(C3CC3)c(Oc3ccnc(Cl)c3)cc2C#N)C[C@H]1C [Compound 668, (R)-5-((2-chloropyridin-4-yl)oxy)-6-cyclopropyl-2-(4-(3-methoxypropanoyl)-3-methylpiperazin-1-yl)nicotinonitrile]	0.5 to 1	< 0.5
C=C(C)c1cc(-c2cc(C#N)c(N3CCN(C(=O)CCOC)[C@H](C)C3)nc2C2CC2)ncn1 [Compound 598, (R)-6-cyclopropyl-2-(4-(3-methoxypropanoyl)-3-methylpiperazin-1-yl)-5-(6-(prop-1-en-2-yl)pyrimidin-4-yl)nicotinonitrile]	0.5 to 1	< 0.5
C=Cc1ccnc(-c2cc(C#N)c(N3CCN(C(=O)CCOC)[C@H](C)C3)nc2C2CC2)c1 [Compound 596, (R)-2′-cyclopropyl-6′-(4-(3-methoxypropanoyl)-3-methylpiperazin-1-yl)-4-vinyl-2,3′-bipyridine-5′-carbonitrile]	< 0.5	< 0.5
N#Cc1ccnc(Nc2cc(C#N)c(N3CCN(C(=O)C[C@H]4CCO4)[C@H](C4CC4)C3)nc2C2CC2)c1 [Compound 809, 5-(4-cyanopyridin-2-ylamino)-6-cyclopropyl-2-((R)-3-cyclopropyl-4-(2-((R)-oxetan-2-yl)acetyl)piperazin-1-yl)nicotinonitrile]	< 0.5	< 0.5
C=Cc1cc(-c2cc(C#N)c(N3CCN(C(=O)C[C@H]4CCCO4)[C@H](C4CC4)C3)nc2C2CC2)ccn1 [Compound 822]	< 0.5	< 0.5
C=Cc1cc(Nc2c(C3CC3)nc(N3CCN(C(=O)CCOC)[C@H](C(C)C)C3)c(C#N)c2C)ccn1 [Compound 807, (R)-6-cyclopropyl-2-(3-isopropyl-4-(3-methoxypropanoyl)piperazin-1-yl)-4-methyl-5-((2-vinylpyridin-4-yl)amino)nicotinonitrile]	< 0.5	< 0.5
C=Cc1cc(-c2cc(C#N)c(N3CCN(C(=O)C4CC4)[C@@H](C4CC4)C3)nc2C2CC2)ncn1 [Compound 578, (S)-2-(4-(cyclopropanecarbonyl)-3-cyclopropylpiperazin-1-yl)-6-cyclopropyl-5-(6-vinylpyrimidin-4-yl)nicotinonitrile]	< 0.5	< 0.5
N#Cc1cc(Nc2ccnc(Cl)c2)c(C2CC2)nc1N1CCN(C(=O)CCO)[C@H](C2CC2)C1 [Compound 677, (R)-5-((2-chloropyridin-4-yl)amino)-6-cyclopropyl-2-(3-cyclopropyl-4-(3-hydroxypropanoyl)piperazin-1-yl)nicotinonitrile]	< 0.5	< 0.5
C=Cc1cc(Cc2cc(C#N)c(N3CCN(C(=O)C4CC4)[C@H](C4CC4)C3)nc2C2CC2)ccn1 [Compound 684, (R)-2-(4-(cyclopropanecarbonyl)-3-cyclopropylpiperazin-1-yl)-6-cyclopropyl-5-((2-vinylpyridin-4-yl)methyl)nicotinonitrile]	< 0.5	< 0.5
N#Cc1cc(-c2cnc3[nH]ccc3c2)c(C2CC2)nc1N1CCN(C(=O)CC(F)(F)F)[C@H](C2CC2)C1 [Compound 539, (R)-6-cyclopropyl-2-(3-cyclopropyl-4-(3,3,3-trifluoropropanoyl)piperazin-1-yl)-5-(1H-pyrrolo[2,3-b]pyridin-5-yl)nicotinonitrile]	1 to 10	< 0.5
C=Cc1cc(-c2cc(C#N)c(N3CCN(C(=O)CCC=O)[C@H](C)C3)nc2C2CC2)ccn1 [Compound 607, (R)-2-cyclopropyl-6-(3-methyl-4-(4-oxobutanoyl)piperazin-1-yl)-2′-vinyl-[3,4′-bipyridine]-5-carbonitrile]	< 0.5	< 0.5

Further lines, results first:

IC50 (HT1080 cells) [µM]	IC50 (IDH1 R132H) [µM]	SMILES
< 0.5	< 0.5	C=Cc1cc(-c2c(C3CC3)nc(N3CCN(C(=O)CC4CCC4)[C@H](C4CC4)C3)c(C#N)c2C)ccn1 [Compound 819, (R)-6-(4-(2-cyclobutylacetyl)-3-cyclopropylpiperazin-1-yl)-2-cyclopropyl-4-methyl-2′-vinyl-3,4′-bipyridine-5-carbonitrile]
1 to 10	0.5 to 1	C=Cc1ncc(Cl)c(-c2cc(C#N)c(N3CCN(C(=O)C4CC4)[C@H](C4CC4)C3)nc2C2CC2)n1 [Compound 533, (R)-5-(5-chloro-2-vinylpyrimidin-4-yl)-2-(4-(cyclopropanecarbonyl)-3-cyclopropylpiperazin-1-yl)-6-cyclopropylnicotinonitrile]
1 to 10	0.5 to 1	C=Cc1cc(-c2cc(C#N)c(N3CCN(C(=O)CCOC)[C@H](C)C3)nc2C2CC2)cc(OC)n1 [Compound 622, (R)-2-cyclopropyl-2′-methoxy-6-(4-(3-methoxypropanoyl)-3-methylpiperazin-1-yl)-6′-vinyl-[3,4′-bipyridine]-5-carbonitrile]
< 0.5	< 0.5	CCO[C@H]1C[C@@H]1C(=O)N1CCN(c2nc(C3CC3)c(-c3cccc4cnccc34)cc2C#N)C[C@H]1C1CC1 [Compound 514, 6-cyclopropyl-2-((R)-3-cyclopropyl-4 ((1S,2S)-2-ethoxycyclopropanecarbonyl)piperazin-1-yl)-5-(isoquinolin-5-yl)nicotinonitrile]
< 0.5	< 0.5	C=Cc1ccnc(Nc2cc(C#N)c(N3CCN(C(=O)CCCO)[C@H](C4CC4)C3)nc2C2CC2)c1 [Compound 815, (R)-6-cyclopropyl-2-(3-cyclopropyl-4-(4-hydroxybutanoyl)piperazin-1-yl)-5-((4-vinylpyridin-2-yl)amino)nicotinonitrile]
< 0.5	< 0.5	C=Cc1cc(-c2cc(C#N)c(N3CCN(C(=O)CCOC)[C@H](C4CC4)C3)nc2C2CC2)c2ccccc2n1 [Compound 574, (R)-6-cyclopropyl-2-(3-cyclopropyl-4-(3-methoxypropanoyl)piperazin-1-yl)-5-(2-vinylquinolin-4-yl)nicotinonitrile]
< 0.5	< 0.5	N#Cc1ccc2c(-c3cc(C#N)c(N4CCN(C(=O)C5CC5)[C@H](C5CC5)C4)nc3C3CC3)cccc2n1 [Compound 563, (R)-5-(5-cyano-6-(4-(cyclopropanecarbonyl)-3-cyclopropylpiperazin-1-yl)-2-cyclopropylpyridin-3-yl)quinoline-2-carbonitrile]
< 0.5	< 0.5	C=Cc1ncccc1-c1cc(C#N)c(N2CCN(C(=O)CCOC)[C@H](C)C2)nc1C1CC1 [Compound 619, (R)-2-cyclopropyl-6-(4-(3-methoxypropanoyl)-3-methylpiperazin-1-yl)-2′-vinyl-3,3′-bipyridine-5-carbonitrile]
< 0.5	< 0.5	Cn1cc(-c2cc(C#N)c(N3CCN(C(=O)CC(F)(F)F)[C@H](C4CC4)C3)nc2C2CC2)c2ccccc2c1=O [Compound 536, (R)-6-cyclopropyl-2-(3-cyclopropyl-4-(3,3,3-trifluoropropanoyl)piperazin-1-yl)-5-(2-methyl-1-oxo-1,2-dihydroisoquinolin-4-yl)nicotinonitrile]
0.5 to 1	< 0.5	N#Cc1cc(-c2cccc3c(C#N)nccc23)c(C2CC2)nc1N1CCN(C(=O)C2CC2)[C@H](C2CC2)C1 [Compound 511, (R)-5-(5-cyano-6-(4-(cyclopropanecarbonyl)-3-cyclopropylpiperazin-1-yl)-2-cyclopropylpyridin-3-yl)isoquinoline-1-carbonitrile]
0.5 to 1	< 0.5	CC(=O)N1CCN(c2nc(C3CC3)c(-c3cccc4cnccc34)cc2C#N)C[C@H]1C [Compound 516, (R)-2-(4-acetyl-3-methylpiperazin-1-yl)-6-cyclopropyl-5-(isoquinolin-5-yl)nicotinonitrile]
